Series [1] deals with hippocampus. Briefly: RT-PCR of anxiety-related hippocampal transcripts, 4 days following stress. In kind it is in vivo, mouse. Here is the method:
(§1) Animals were randomly divided into 5 groups. The following daily treatments initiated immediately before stressor exposure and for a total of four consecutive days: saline, 50 μg/kg ODN1826, 50 μg/kg mEN101, 50 μg/kg μg mEN101 and 500 μg/kg μg ODN2088. Oligonucleotides were delivered in 300 μl 0.9% NaCl solution (Teva, Israel). A control group was exposed to fresh, unused litter. Animals were sacrificed and brains dissected on day 1 2 h after the stressor, on day 4 2 h after the last injection, or on day 7 2 h after the behavioral tests, as noted.
Real-time PCR (RT-PCR): Brains were dissected and tissues stored frozen at −70° C. until use. Hippocampal RNA was extracted using the RNeasy Tissue Mini Kit (Qiagen, Germany). Total RNA was reverse-transcribed (200 ng) using Impromp-II reverse transcriptase (Promega, Madison, Wis.) as instructed. RT-PCR was performed using Power SYBR®Green PCR Master Mix (Applied Biosystems, UK) in a 7900 HT Sequence Detection System (Applied Biosystems, Foster City, Calif.). Quantification was assessed at the logarithmic phase of the PCR reaction. The PCR annealing temperature was 60° C. for all primer pairs. GAPDH was used as a house-keeping gene.
The transcription factor early growth response gene 1 (egr-1) is a central mediator of inflammation and is broadly and constitutively expressed in the central nervous system (CNS). […]

Series [2] deals with FVB/N mice. The series can be described thus: Predator (cat) odor stress paradigm, elevated plus maze (EPM) and acoustic startle response (ASR) one week post-exposure. In kind it is in vivo, mouse. Here is the method:
Animals: FVB/N or adult TLR9 −/− mice and strain-matched wild type C57/B6J mice were housed four per cage, with constant temperature (21±1° C.), a 12 hour light/dark cycle, free access to food and water and habituation to the housing conditions by daily handling. Experiments were performed 1 week after arrival in the animal facility.
Behavioral paradigms: Mice were placed for 10 minutes on well-soiled cat litter (in use by the cat for 2 days, sifted for stools). One week after exposure, animals were tested according to Cohen et al. (2005) Biol Psychiatry 58, 640 in the elevated plus maze (EPM) and the acoustic startle response (ASR) paradigms. The EPM is a plus-shaped platform with two opposing open arms and two opposing closed arms (surrounded by 14-cm high opaque walls on three sides). Mice were placed on the central platform and were allowed to explore the maze for 5 min. […]
Startle response was measured using two ventilated startle chambers (SR-LAB System, San Diego Instruments, San Diego, Calif.). Each Plexiglas cylinder rests on a platform inside a sound-attenuated, ventilated chamber. Startle sessions started with a 5-minute acclimatization period to a background of 68 dB white noise, followed by 30 acoustic startle stimuli (110 dB white noise of 40 ms duration with 30 s or 45 s inter-trial interval). Startle amplitude was averaged over all 30 trials, and percent habituation was calculated as the percent difference between the response to the first block of stimuli and to the last one.
as §1
To challenge the hypothesis that TLR9 activation modulates psychological stress reactions, mice were exposed to the predator odor stress paradigm (Cohen, H., Zohar, J., Matar, M. A., Kaplan, Z. & Geva, A. B. (2005) Biol Psychiatry 58, 640-50) and treated them with TLR9 activating or blocking oligonucleotides and with a known stress-suppressing oligonucleotide, mEN101. One week post-exposure, treated mice were tested for avoidance behavior and hyper-arousal in the elevated plus maze (EPM) and acoustic startle response (ASR) tests, respectively (FIG. 1B). […] They also presented greater startle amplitude (F5,103=10.75, p<0.0001; p<0.0001) and decreased startle habituation ([…]; p<0.0001) than control mice (FIG. 1C). The traumatic experience conferred varied impacts in the exposed mice, ranging from drastically maladaptive behavior to generally unmodified response patterns.

Series [3] deals with HSP90β mRNA. The series can be described thus: HSP90β mRNA RT-PCR in spleen and frontal lobe of stressed mice. As to conditions: co-administration with mEN101. In kind it is in vivo, mouse. Here is the method: Animals: The stress paradigm consisted of placing the test animals on well-soiled cat litter for 10 minutes (in use by the cat for 2 days, sifted for stools). Tissues were removed 4 days following exposure.
(§2) Real-time PCR (RT-PCR): RAW264.7 cells and spleen were used for RT-PCR. 1×10^6 RAW264.7 cells were grown in 2 ml medium in 6 wells plates until 80% confluence was obtained. Total RNA was extracted using the RNeasy kit (Qiagen, CA, USA). Spleen and brain tissues' RNA was extracted using the RNeasy Tissue Mini Kit (Qiagen, Germany). In all cases, total RNA was reverse-transcribed (200 ng) using Impromp-II reverse transcriptase (Promega, WI, USA) according to manufacturer's instructions. RT-PCR was performed using Power SYBR®Green PCR Master Mix (Applied Biosystems, UK) in a 7900 HT Sequence Detection System (Applied Biosystems, CA). Quantification was assessed at the logarithmic phase of the PCR reaction. The PCR annealing temperature was 60° C. for all primer pairs.

Series [4] concerns RAW264.7 cells. Briefly: Nitric oxide (NO) production, Griess reaction. In kind it is cell-based, mouse. Particulars: added with 10 μM mEN101. Here is the method: The mouse macrophage cell line RAW 264.7 (ATCC, Bethesda, Md.) was cultured in Dulbecco's modified Eagle's medium (DMEM) (Biological Industries) supplemented with 10% heat-inactivated fetal bovine serum (Biological Industries, Israel), 100 μg/ml streptomycin, 100 U/ml penicillin (Sigma) and 2 mM 1-glutamine (Biological Industries) at 37° C. in a humidified atmosphere with 5% CO2.
Determination of nitric oxide (NO) production: Nitrite concentration in the medium of cultured cells was measured as an indicator of NO production according to the Griess reaction. 1×10^5 mouse RAW264.7 cells were grown in 0.5 ml medium in 48-wells plate until 80% confluence was obtained. […] (1% sulfanilamide, 0.1% naphthylethylenediamine dihydrochloride, 5% H3PO4). Absorbance was read at 540 nm after 10 min using SPECTRAFluor Plus spectrophotometer (TECAN, UK).
To further characterize the TLR9 activating features of mEN101, mEN101 was applied to RAW264.7 cells (n=4 repeats) for 24 hours and the subsequent production of inflammatory markers was quantified. […] Addition of chloroquine (CQ), a weak base that perturbs endosomal pH and thus disturbs endosomal maturation, as well as the specific TLR9 inhibiting oligonucleotides ODN2088 and ODN TTAGGG (17), all blocked the 10 μM mEN101-driven increases in NO (p<0.015) (FIG. 2A). Thus, both gain and loss of function tests validated the nature of mEN101 as an endosomally active TLR9 activator, albeit a weak one.
Background: Nitrite, measured by Griess reagent, commonly stands in for NO production.

Series [5] relates to RAW264.7 cells. The series can be described thus: HSP90β mRNA RT-PCR in RAW264.7 cells. In kind it is cell-based, mouse. Particulars: with mEN101, 24 hours. Here is the method: Cell cultures: The mouse macrophage cell line RAW 264.7 (ATCC, MD) was cultured in Dulbecco's modified Eagle's medium (DMEM) (Biological Industries, Israel) supplemented with 10% heat-inactivated fetal bovine serum (Biological Industries, Israel), 100 μg/ml streptomycin (Sigma), 100 U/ml penicillin (Sigma) and 2 mM 1-glutamine (Biological Industries, Israel) at 37° C. in a humidified atmosphere with 5% CO2.
as §2

In series [6] the test system is RAW264.7 cells. The series can be described thus: Nitric oxide (NO) production, Griess reaction. As to conditions: with 1 μM mEN101. It counts as cell-based, mouse.
Where [7] appears, read: 500 μg/kg co-administered with 50 μg/kg mEN101.

Entries after “also recorded” stand apart in the source; their conditions may differ. In the oligonucleotide strings, read from the 5' end, every base follows the letter of its sugar. An asterisk marks phosphorothioate; unmarked linkages are phosphodiester. Other units and linkages are bracketed, terminal groups are in braces. A string of capitals states the bases alone. d = 2'-deoxy (DNA)

On to “5′-TCCTGGCGGGGAAGT-3′ (dT*dC*dC*dT*dG*dG*dC*dG*dG*dG*dG*dA*dA*dG*dT) [ODN2088]”, for which the “effect on mEN101-induced modulation of hippocampal genes” value in series [1] (co-administration with mEN101) is on record as “abolished the mEN101-induced modulation of these genes”. Further, the “anxiety-related transcripts GABRA2, CHRNA7, ADCYAP1R1, PKCB, CHRBP and CAMK2A (FIGS. 5A-F legend)” value in series [1] (co-administration with mEN101, day 4) was “reduced to control levels”. Moreover, in series [2] (setting [7]), the “EPM score of co-treated mice vs mEN101-treated mice” value is on record as “larger EPM scores”, the “effect on mEN101 anxiolytic effects” value was “abolished much of the mEN101 anxiolytic effects; also recorded: abolished the mEN101-induced amelioration of anxiety-correlated behaviors”, the “habituation to acoustic startle of co-treated mice vs mEN101-treated mice” value is “smaller habituation to acoustic startle” and the “startle response of co-treated mice” value is given as “remained unchanged”. For the same substance, the “anxiety index (AI): effect on mEN101 ameliorative effect” value in series [2] (co-administered with mEN101, compared to mEN101 treated mice) is given as “abolished mEN101 ameliorative effect”. Moreover, the “effect on HSP90β mRNA up-regulation” value in series [3] is “completely abolished; also recorded: blocked”. Further, the “effect on 10 μM mEN101-driven increases in NO” value in series [4] is “blocked”. In series [5], the “effect on mEN101 up-regulation of HSP90β mRNA” value is recorded as “abolished”. The “effect on mEN101 effects on NO production (FIG. 2A legend)” value in series [6] is given as “abolished”.
